Assays:
Experiment in all cases: relative viability (nuclei count vs DMSO), 5 days (fraction); higher = more cells survive
Doramapimod + Tozasertib = compound: Cc1ccc(-n2nc(C(C)(C)C)cc2NC(=O)Nc2ccc(OCCN3CCOCC3)c3ccccc23)cc1 [Doramapimod] + Cc1cc(Nc2cc(N3CCN(C)CC3)nc(Sc3ccc(NC(=O)C4CC4)cc3)n2)n[nH]1 [Tozasertib] (partner 0.1 µM)
Method in brief: (§1)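 Lung cancer cell lines, seeded in 1536-well plates, were treated the following day by pin tool with a single drug or with five library-drug doses (not always all listed) in √10 steps on top of a fixed anchor-drug dose. Cells were fixed and nuclei stained in one step after 5 days, and nuclei were counted. Relative viability is the nuclei count for treated wells divided by that for vehicle wells, reported as medians of duplicate plates.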

RAF265 + Palbociclib = compound: Cn1c(Nc2ccc(C(F)(F)F)cc2)nc2cc(Oc3ccnc(-c4ncc(C(F)(F)F)[nH]4)c3)ccc21 [RAF265] + CC(=O)c1c(C)c2cnc(Nc3ccc(N4CCNCC4)cn3)nc2n(C2CCCC2)c1=O [Palbociclib] (partner 0.5 µM)
Method in brief: as §1

RAF265 + Alpelisib = compound: Cn1c(Nc2ccc(C(F)(F)F)cc2)nc2cc(Oc3ccnc(-c4ncc(C(F)(F)F)[nH]4)c3)ccc21 [RAF265] + Cc1nc(NC(=O)N2CCC[C@H]2C(N)=O)sc1-c1ccnc(C(C)(C)C(F)(F)F)c1 [Alpelisib] (partner 2 µM)
Method in brief: as §1

RAF265 + Decitabine = compound: Cn1c(Nc2ccc(C(F)(F)F)cc2)nc2cc(Oc3ccnc(-c4ncc(C(F)(F)F)[nH]4)c3)ccc21 [RAF265] + Nc1ncn([C@H]2C[C@H](O)[C@@H](CO)O2)c(=O)n1 [Decitabine] (partner 2 µM)
Method in brief: as §1

Cell Line | relative viability (Doramapimod + Tozasertib; first compound 0.02 µM) | relative viability (Doramapimod + Tozasertib; first compound 0.06325 µM) | relative viability (Doramapimod + Tozasertib; first compound 0.2 µM) | relative viability (Doramapimod + Tozasertib; first compound 0.6325 µM) | relative viability (Doramapimod + Tozasertib; first compound 2 µM) | relative viability (RAF265 + Palbociclib; first compound 0.01 µM) | relative viability (RAF265 + Palbociclib; first compound 0.03162 µM) | relative viability (RAF265 + Palbociclib; first compound 0.1 µM) | relative viability (RAF265 + Palbociclib; first compound 0.3162 µM) | relative viability (RAF265 + Palbociclib; first compound 1 µM) | relative viability (RAF265 + Alpelisib; first compound 0.01 µM) | relative viability (RAF265 + Alpelisib; first compound 0.03162 µM) | relative viability (RAF265 + Alpelisib; first compound 0.1 µM) | relative viability (RAF265 + Alpelisib; first compound 0.3162 µM) | relative viability (RAF265 + Alpelisib; first compound 1 µM) | relative viability (RAF265 + Decitabine; first compound 0.01 µM) | relative viability (RAF265 + Decitabine; first compound 0.03162 µM) | relative viability (RAF265 + Decitabine; first compound 0.1 µM) | relative viability (RAF265 + Decitabine; first compound 0.3162 µM) | relative viability (RAF265 + Decitabine; first compound 1 µM)
SK-LU-1 | 0.348 | 0.41 | 0.314 | 0.347 | 0.277 | 0.399 | 0.342 | 0.33 | 0.318 | 0.251 | 0.972 | 0.494 | 0.493 | 0.506 | 0.363 | 0.847 | 0.597 | 0.508 | 0.569 | 0.414
LOU-NH91 | 0.715 | 0.66 | 0.798 | 0.76 | 0.488 | 0.565 | 0.524 | 0.55 | 0.537 | 0.436 | 0.747 | 0.667 | 0.739 | 0.557 | 0.495 | 0.828 | 0.745 | 0.763 | 0.685 | 0.685
LXF-289 | 0.207 | 0.177 | 0.177 | 0.19 | 0.203 | 0.622 | 0.615 | 0.625 | 0.498 | 0.313 | 1.06 | 0.965 | 1 | 0.79 | 0.75 | 0.446 | 0.399 | 0.393 | 0.345 | 0.26
NCI-H1299 | – | – | – | – | – | – | – | – | – | – | 0.981 | 1.06 | 0.966 | 0.589 | 0.616 | – | – | – | – | –
HARA | 0.128 | 0.112 | 0.106 | – | 0.107 | 0.298 | 0.277 | 0.235 | 0.215 | 0.178 | 0.762 | 0.708 | 0.736 | 0.477 | 0.287 | 0.652 | 0.468 | 0.53 | 0.426 | 0.414
LU99A | 0.307 | 0.248 | 0.294 | 0.252 | 0.264 | 0.366 | 0.35 | 0.325 | 0.217 | 0.144 | 0.474 | 0.384 | 0.347 | 0.252 | 0.21 | 0.814 | 0.842 | 0.652 | 0.477 | 0.302
201T | 0.914 | 0.918 | 0.935 | 1.05 | 0.906 | 0.344 | 0.326 | 0.369 | 0.377 | 0.338 | 0.981 | 1.02 | 1.07 | 1.06 | 0.981 | 0.879 | 0.839 | 0.864 | 0.884 | 0.858
HCC-827 | 0.422 | 0.414 | 0.422 | 0.375 | 0.356 | 0.462 | 0.494 | 0.489 | – | 0.395 | 0.984 | 1.02 | 1.01 | – | 0.735 | 0.341 | 0.325 | 0.294 | – | 0.333
NCI-H1666 | 0.642 | 0.687 | 0.641 | 0.624 | 0.597 | 0.612 | 0.577 | 0.595 | 0.663 | 0.585 | 1.1 | 1.11 | 0.942 | 0.815 | 0.547 | 0.851 | 0.915 | 0.71 | 0.722 | 0.694
NCI-H1915 | 0.438 | 0.464 | 0.489 | 0.459 | 0.384 | 0.525 | 0.435 | 0.438 | 0.236 | 0.147 | 1.07 | 0.945 | 0.908 | 0.543 | 0.296 | 0.262 | 0.278 | 0.258 | 0.236 | 0.193
NCI-H2009 | 0.727 | 0.799 | 0.696 | 0.663 | 0.556 | 0.264 | 0.224 | 0.162 | 0.17 | 0.144 | 1.21 | 1.11 | 1.03 | 1.05 | 0.594 | 0.43 | 0.376 | 0.377 | 0.459 | 0.335
ChaGo-K-1 | 0.225 | 0.227 | 0.229 | 0.215 | 0.217 | 0.935 | 0.951 | 0.89 | 0.844 | 0.607 | – | – | – | – | – | 0.584 | 0.546 | 0.512 | 0.516 | 0.437
COR-L 105 | 0.409 | 0.342 | 0.376 | 0.35 | 0.365 | 0.425 | 0.36 | 0.385 | 0.371 | 0.358 | 1.09 | 0.948 | 1.16 | 0.603 | 0.461 | 0.688 | 0.773 | 0.599 | 0.497 | 0.436
NCI-H2170 | 0.717 | 0.611 | 0.824 | 0.636 | 0.6 | 0.398 | 0.295 | 0.354 | 0.26 | 0.295 | 0.773 | 0.643 | 0.671 | 0.524 | 0.641 | 0.482 | 0.439 | 0.499 | 0.366 | 0.386
A549 | – | – | – | – | – | – | – | – | – | – | 0.761 | 0.612 | 0.541 | 0.244 | 0.178 | 0.226 | 0.232 | 0.259 | 0.318 | 0.155

From the supplement of paper PMC10307832
